Data as given in patent publication US20200046703A1, “COMPOSITIONS AND METHODS FOR TREATMENT OF THE SIDE-EFFECTS ASSOCIATED WITH ADMINISTRATION OF THERAPEUTIC AGENTS” (ASYMMETRIC THERAPEUTICS, LLC, priority 2018, published 2020).
Values after ≈ are worked out from the molar mass of the structure shown. Each block holds one compound with its values, some of them ahead of it.

What was measured:
Solubility of oxypurinol = format: physicochemical; details: in vitro; in the protective formulation; read-out: maximum in vitro solubility / upper limit of solubility
proliferating HGEP cells = assay: Proliferating HGEP cell viability with/without 5-FU; format: cell-based, human; details: for relative cell viability (AVG): 120 hours
Method: (§1) In one set of experiments, the results of which are shown in Table 1, proliferating HGEP cells, commonly used to assess oral mucosal toxicity, were exposed to the clinically-relevant dose of 10 μM of 5-FU and different concentrations of oxypurinol, either alone or with different concentrations of adenine or uracil, using standard tissue culture methods and incubated at 37° C. Oxypurinol concentrations of 0.03 mM, 0.1 mM, and 0.3 mM were tested. Adenine and uracil concentrations of 0.1 mM and 0.3 mM were tested. The relative viability of the cells was determined after 120 hours.

proliferating HPEK cells = assay: Proliferating HPEK cell viability with/without 5-FU; format: cell-based, human; details: for relative cell viability (AVG): 120 hours; for Relative Protection against 5-FU toxicity / Relative Growth in the presence of 5-FU: HPEK proliferating cells; for Relative Protection against 5-FU toxicity: fraction of viability loss prevented; for Relative Growth in the presence of 5-FU: viability with 5-FU divided by viability without 5-FU
Method: as §1, with “In another” for “In one”, “Table 2,” for “Table 1,”, “proliferating HPEK” for “proliferating HGEP”, “assess skin tissue” for “assess oral mucosal”

confluent HPEK cells = assay: Confluent HPEK cell viability with/without 5-FU; format: cell-based, human; details: for relative cell viability (AVG): 120 hours; for Relative Protection against 5-FU toxicity / Relative Growth in the presence of 5-FU: HPEK confluent cells; for Relative Protection against 5-FU toxicity: fraction of viability loss prevented; for Relative Growth in the presence of 5-FU: viability with 5-FU divided by viability without 5-FU
Method: Oxypurinol and allopurinol concentrations of 0.3 mM, 1.0 mM, and 3.0 mM, which are ten times higher than those used in the first set of experiments, were tested. An adenine concentration of 0.3 mM, which was the higher concentration used in the first set of experiments, was tested. The relative viability of the cells was determined after 120 hours.

confluent NHEK cells = assay: Confluent NHEK cell viability with/without 5-FU; format: cell-based, human; details: for relative cell viability (AVG): 120 hours; for Relative Protection against 5-FU toxicity: fraction of viability loss prevented
Method: In yet another set of experiments, the results of which are shown in Table 4, confluent NHEK cells were exposed to the clinically-relevant dose of 10 μM of 5-FU and different concentrations of sodium hydroxide, oxypurinol, or allopurinol using standard tissue culture methods and incubated at 37° C. Sodium hydroxide concentrations of 1 mM, 2 mM, 3 mM, and 4 mM were tested. Oxypurinol and allopurinol concentrations of 0.1 mM, 0.3 mM, 1.0 mM, and 3.0 mM were tested, both in the presence and in the absence of 10 μM of 5-FU. The relative viability of the cells was determined after 120 hours. The sodium hydroxide trials were only performed to serve as a control.

marrow cells = details: about a 30-fold excess; in patients; cited from earlier work
[1] = concentrations of 0.1 mM and 0.3 mM
[2] = 0.3 mM, with 5-FU 10 μM, listed as oxypurinol
[3] = 1.0 mM, with 5-FU 10 μM, listed as oxypurinol
[4] = 3.0 mM, with 5-FU 10 μM, listed as oxypurinol

solubility (Solubility of oxypurinol): ~3000 µM (≈ 456 µg/mL)
Structure (SMILES): O=c1nc2[nH][nH]cc-2c(=O)[nH]1 [Oxypurinol, oxypurinol]
relative cell viability (AVG) (proliferating HGEP cells; 0.03 mM, no 5-FU): 0.8792
relative cell viability (AVG) (proliferating HGEP cells; 0.03 mM, with 5-FU 10 μM): 0.6441
relative cell viability (AVG) (proliferating HGEP cells; 0.1 mM, no 5-FU): 0.7134
relative cell viability (AVG) (proliferating HGEP cells; 0.1 mM, with 5-FU 10 μM): 0.7540
relative cell viability (AVG) (proliferating HGEP cells; 0.3 mM, no 5-FU): 0.6367
relative cell viability (AVG) (proliferating HGEP cells; 0.3 mM, with 5-FU 10 μM): 0.8925
effect on cell viability in the absence of 5-FU (proliferating HGEP cells; 0.03 to 0.3 mM): negative effect
effect on cell viability in the presence of 5-FU (proliferating HGEP cells; [1]): protective effect
relative cell viability (AVG) (proliferating HPEK cells; 0.03 mM, no 5-FU): 1.0763
relative cell viability (AVG) (proliferating HPEK cells; 0.03 mM, with 5-FU 10 μM): 0.6903
relative cell viability (AVG) (proliferating HPEK cells; 0.1 mM, no 5-FU): 0.7961
relative cell viability (AVG) (proliferating HPEK cells; 0.1 mM, with 5-FU 10 μM): 0.7961
relative cell viability (AVG) (proliferating HPEK cells; 0.3 mM, no 5-FU): 1.0201
relative cell viability (AVG) (proliferating HPEK cells; 0.3 mM, with 5-FU 10 μM): 0.8635
Relative Protection against 5-FU toxicity (proliferating HPEK cells; 0.03 mM): 0.1133
Relative Growth in the presence of 5-FU (proliferating HPEK cells; 0.03 mM): 0.6414
Relative Protection against 5-FU toxicity (proliferating HPEK cells; 0.1 mM): 0.4163
Relative Growth in the presence of 5-FU (proliferating HPEK cells; 0.1 mM): 1.0000
Relative Protection against 5-FU toxicity (proliferating HPEK cells; 0.3 mM): 0.6092
Relative Growth in the presence of 5-FU (proliferating HPEK cells; 0.3 mM): 0.8465
effect on cell viability in the presence of 5-FU (proliferating HPEK cells; [1]): protective effect
effect on cell viability in the absence of 5-FU (proliferating HPEK cells; range of 0.03 mM to 0.3 mM): minimal effect
relative cell viability (AVG) (confluent HPEK cells; 0.3 mM, no 5-FU): 1.0183
relative cell viability (AVG) (confluent HPEK cells; 0.3 mM, with 5-FU 10 μM): 0.7226
relative cell viability (AVG) (confluent HPEK cells; [2]): 0.72
relative cell viability (AVG) (confluent HPEK cells; 1.0 mM, no 5-FU): 1.0706
relative cell viability (AVG) (confluent HPEK cells; 1.0 mM, no 5-FU, listed as oxypurinol): 1.07
relative cell viability (AVG) (confluent HPEK cells; 1.0 mM, with 5-FU 10 μM): 0.7509
relative cell viability (AVG) (confluent HPEK cells; [3]): 0.75
relative cell viability (AVG) (confluent HPEK cells; 3.0 mM, no 5-FU): 0.8351
relative cell viability (AVG) (confluent HPEK cells; 3.0 mM, no 5-FU, listed as oxypurinol): 0.835
relative cell viability (AVG) (confluent HPEK cells; 3.0 mM, with 5-FU 10 μM): 0.8147
relative cell viability (AVG) (confluent HPEK cells; [4]): 0.81
protection from 5-FU toxicity compared with allopurinol (confluent HPEK cells; HPEK cells, FIG. 1, across the range of tested concentrations): significantly better
Relative Protection against 5-FU toxicity (confluent HPEK cells; 0.3 mM): 0.2249
Relative Growth in the presence of 5-FU (confluent HPEK cells; 0.3 mM): 0.7096
Relative Protection against 5-FU toxicity (confluent HPEK cells; 1.0 mM): 0.3039
Relative Growth in the presence of 5-FU (confluent HPEK cells; 1.0 mM): 0.7013
Relative Protection against 5-FU toxicity (confluent HPEK cells; 3.0 mM): 0.4822
Relative Growth in the presence of 5-FU (confluent HPEK cells; 3.0 mM): 0.9755
oxypurinol toxicity (confluent HPEK cells; HPEK, up to about 3 mM): no evidence of oxypurinol toxicity
effect on cell viability in the presence of 5-FU (confluent HPEK cells; concentration range of 0.3 mM to 3.0 mM): protective effect
preservation of growth, with versus without 5-FU (confluent HPEK cells; oxypurinol at 3 mM, 5-FU 10 μM): 97.5%
effect on cell viability in the presence of 5-FU (confluent NHEK cells; 0.1 mM to 3.0 mM): protective effect
relative cell viability (AVG) (confluent NHEK cells; 0.1 mM, no 5-FU): 0.8884
relative cell viability (AVG) (confluent NHEK cells; 0.1 mM, with 5-FU 10 μM): 0.5818
relative cell viability (AVG) (confluent NHEK cells; 0.1 mM, with 5-FU 10 μM, listed as oxypurinol): 0.58
relative cell viability (AVG) (confluent NHEK cells; 0.3 mM, no 5-FU): 0.9059
relative cell viability (AVG) (confluent NHEK cells; 0.3 mM, with 5-FU 10 μM): 0.5881
relative cell viability (AVG) (confluent NHEK cells; [2]): 0.59
relative cell viability (AVG) (confluent NHEK cells; 1.0 mM, no 5-FU): 0.9580
relative cell viability (AVG) (confluent NHEK cells; 1.0 mM, with 5-FU 10 μM): 0.5965
relative cell viability (AVG) (confluent NHEK cells; [3]): 0.60
Relative Growth in the presence of 5-FU (confluent NHEK cells; 3.0 mM, NHEK, FIG. 2): over 73%
relative cell viability (AVG) (confluent NHEK cells; 3.0 mM, no 5-FU): 0.9784
relative cell viability (AVG) (confluent NHEK cells; 3.0 mM, with 5-FU 10 μM): 0.7165
relative cell viability (AVG) (confluent NHEK cells; [4]): 0.72
protection from 5-FU toxicity compared with allopurinol (confluent NHEK cells; NHEK cells, FIG. 2, across the range of tested concentrations): significantly better
Relative Protection against 5-FU toxicity (confluent NHEK cells; NHEK, 0.1 mM): 0.2834
Relative Growth in the presence of 5-FU (confluent NHEK cells; NHEK, 0.1 mM, viability with 5-FU divided by viability without 5-FU): 0.6549
Relative Protection against 5-FU toxicity (confluent NHEK cells; NHEK, 0.3 mM): 0.2941
Relative Growth in the presence of 5-FU (confluent NHEK cells; NHEK, 0.3 mM, viability with 5-FU divided by viability without 5-FU): 0.6492
Relative Protection against 5-FU toxicity (confluent NHEK cells; NHEK, 1.0 mM): 0.3085
Relative Growth in the presence of 5-FU (confluent NHEK cells; NHEK, 1.0 mM, viability with 5-FU divided by viability without 5-FU): 0.6226
Relative Protection against 5-FU toxicity (confluent NHEK cells; NHEK, 3.0 mM): 0.5142
Relative Growth in the presence of 5-FU (confluent NHEK cells; NHEK, 3.0 mM, viability with 5-FU divided by viability without 5-FU): 0.7323
oxypurinol toxicity (confluent NHEK cells; NHEK, up to about 3 mM): no evidence of oxypurinol toxicity
effect on cell viability in the absence of 5-FU (confluent NHEK cells; range of 0.1 mM to 3.0 mM): small negative effect
protection of marrow cells from 5-FU toxicity (marrow cells): completely protect marrow cells from 5-FU toxicity

Structure (SMILES): Nc1ncnc2nc[nH]c12 [Adenine, adenine, reference compound]
relative cell viability (AVG) (proliferating HGEP cells; 0.1 mM, with 5-FU 10 μM): 0.7549
relative cell viability (AVG) (proliferating HGEP cells; 0.3 mM, with 5-FU 10 μM): 0.6389
relative cell viability (AVG) (proliferating HPEK cells; 0.1 mM, with 5-FU 10 μM): 0.6214
relative cell viability (AVG) (proliferating HPEK cells; 0.3 mM, with 5-FU 10 μM): 0.5985
relative cell viability (AVG) (confluent HPEK cells; 0.3 mM, no 5-FU): 1.3784
relative cell viability (AVG) (confluent HPEK cells; 0.3 mM, with 5-FU 10 μM): 0.7456
